Here are results for eleven compounds from patent US11739100B2, “2,3-dihydro-1h-imidazo{1,2-a}pyrimidin-5-one and this 1,2,3,4-tetrahydropyrimido{1,2-a}pyrimidin-6-one derivatives comprising a substituted morpholine, preparation thereof and pharmaceutical use thereof” (SANOFI, priority 2012, dated 2023).

The assay addresses T1, recombinant Vps34 (Homo sapiens, UniProt Q8NEB9).
T1 construct: purchased Invitrogen PV5126
Put plainly: Phosphorylation of phosphatidylinositol (PI) by Vps34 in vitro, ADP detected by TR-FRET (HTRF Transcreener ADP). Format: biochemical. Particulars: 10 μM ATP, 55 μg/ml PI, approximately 3 nM Vps34, 1 hour at ambient temperature; absolute IC50, mean of two independent experiments; read-out: IC50 activity range. A general note: In TR-FRET formats the signal depends on donor and acceptor labels being close together.

Where only a bound is given, the exact number is not on record here.

T1 sequence (Q8NEB9 whole entry): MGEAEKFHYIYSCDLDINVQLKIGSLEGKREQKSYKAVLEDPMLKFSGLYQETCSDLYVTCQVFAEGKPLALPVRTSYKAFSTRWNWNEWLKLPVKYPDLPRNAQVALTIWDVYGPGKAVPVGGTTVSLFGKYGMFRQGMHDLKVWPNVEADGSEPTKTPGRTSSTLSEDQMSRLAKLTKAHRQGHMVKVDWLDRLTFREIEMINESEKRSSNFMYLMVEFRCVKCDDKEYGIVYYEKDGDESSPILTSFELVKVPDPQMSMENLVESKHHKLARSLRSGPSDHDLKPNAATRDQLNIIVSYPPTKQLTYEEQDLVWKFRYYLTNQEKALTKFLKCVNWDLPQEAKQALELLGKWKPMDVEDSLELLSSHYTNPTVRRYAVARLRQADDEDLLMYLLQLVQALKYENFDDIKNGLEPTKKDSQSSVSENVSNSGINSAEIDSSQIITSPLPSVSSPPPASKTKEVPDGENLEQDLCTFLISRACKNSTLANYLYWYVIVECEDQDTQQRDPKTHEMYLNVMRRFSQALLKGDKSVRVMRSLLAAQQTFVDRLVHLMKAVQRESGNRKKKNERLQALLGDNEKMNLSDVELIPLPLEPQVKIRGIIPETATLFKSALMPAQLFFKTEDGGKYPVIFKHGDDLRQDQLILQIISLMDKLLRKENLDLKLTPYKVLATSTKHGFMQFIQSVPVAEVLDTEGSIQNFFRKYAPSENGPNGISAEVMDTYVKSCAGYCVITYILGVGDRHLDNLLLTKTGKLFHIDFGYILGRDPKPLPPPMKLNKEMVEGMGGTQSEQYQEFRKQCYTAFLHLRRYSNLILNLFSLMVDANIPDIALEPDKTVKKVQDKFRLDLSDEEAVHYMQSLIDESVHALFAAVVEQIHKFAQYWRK

Turning to `Cc1nc(CN2CC[C@H](C(F)(F)F)n3c2nc(N2CCOC[C@H]2C)c(F)c3=O)no1` [Example 21, (R)-3-Fluoro-2-((R)-3-methylmorpholin-4-yl)-9-(5-methyl-[1,2,4]oxadiazol-3-yl-methyl)-6-trifluoromethyl-6,7,8,9-tetrahydro-pyrimido[1,2-a]-pyrimidin-4-one], the IC50 is less than 10 nM.

With `Cc1ccc(N2c3nc(N4CCOC[C@H]4C)cc(=O)n3CC[C@H]2C(F)(F)F)cn1` [Example 83, (S)-2-((R)-3-Methyl-morpholin-4-yl)-9-(6-methylpyridin-3-yl)-8-trifluoromethyl-6,7,8,9-tetrahydro-pyrimido[1,2-a]-pyrimidin-4-one], the IC50 was less than 10 nM.

For the compound `CC(C)Oc1ncccc1CN1c2nc(N3CCOC[C@H]3C)cc(=O)n2CC[C@H]1C(F)(F)F` [Example 230, (S)-9-(2-Isopropoxy-pyridin-3-ylmethyl)-2-((R)-3-methyl-morpholin-4-yl)-8-trifluoromethyl-6,7,8,9-tetrahydro-pyrimido[1,2-a]-pyrimidin-4-one], the IC50 is less than 10 nM.

Regarding `C[C@@H]1COCCN1c1cc(=O)n2c(n1)N(CC(=O)c1ccccn1)CC[C@@H]2C(F)(F)F` [Example 102, (R)-2-((R)-3-Methyl-morpholin-4-yl)-9-(2-oxo-2-pyridin-2-yl-ethyl)-6-trifluoromethyl-6,7,8,9-tetrahydro-pyrimido[1,2-a]-pyrimidin-4-one], the IC50 is less than 10 nM.

On to `CCC(C)C(=O)CN1c2nc(N3CCOC[C@H]3C)cc(=O)n2CC[C@H]1C(F)(F)F` (stereo partly drawn) [Example 291, (S)-2-((R)-3-Methyl-morpholin-4-yl)-9-(3-methyl-2-oxo-pentyl)-8-trifluoromethyl-6,7,8,9-tetrahydro-pyrimido[1,2-a]-pyrimidin-4-one], for which the IC50 is less than 10 nM.

In the case of `C[C@@H]1COCCN1c1nc2n(c(=O)c1F)CC[C@@H](C(F)(F)F)N2CC(=O)C1CC1` [Example 6, (S)-9-(2-Cyclopropyl-2-oxoethyl)-3-fluoro-2-((R)-3-methyl-morpholin-4-yl)-8-trifluoromethyl-6,7,8,9-tetrahydro-pyrimido[1,2-a]-pyrimidin-4-one], the IC50 is less than 10 nM.

On to `Cc1noc(CN2c3nc(N4CCOC[C@H]4C)cc(=O)n3C[C@@]2(C)C(F)(F)F)n1` [Example 208, (S)-2-Methyl-7-((R)-3-methylmorpholin-4-yl)-1-(3-methyl-[1,2,4]oxadiazol-5-yl-methyl)-2-trifluoromethyl-2,3-dihydro-1H-imidazo[1,2-a]-pyrimidin-5-one], for which the IC50 lay within 10 to 100 nM.

Take `Cc1nnsc1CN1c2nc(N3CCOC[C@H]3C)cc(=O)n2CC[C@H]1C(F)(F)F` [Example 125, (S)-2-((R)-3-Methyl-morpholin-4-yl)-9-(4-methyl-[1,2,3]thiadiazol-5-yl-methyl)-8-trifluoromethyl-6,7,8,9-tetrahydro-pyrimido[1,2-a]-pyrimidin-4-one]: the IC50 lay in the range of 10 to 100 nM.

Consider `C[C@@H]1COCCN1c1cc(=O)n2c(n1)N(CC(=O)Cc1ccccn1)[C@H](C(F)(F)F)CC2` [Example 67, (S)-2-((R)-3-Methyl-morpholin-4-yl)-9-(2-oxo-3-pyridin-2-yl-propyl)-8-trifluoromethyl-6,7,8,9-tetrahydro-pyrimido[1,2-a]-pyrimidin-4-one], for which the IC50 was less than 10 nM.

With `O=c1cc(N2CC3CCC(C2)O3)nc2n1CC[C@@H](C(F)(F)F)N2Cc1ccon1` [Example 169, (S)-9-Isoxazol-3-yl-methyl-2-(8-oxa-3-azabicyclo[3.2.1]oct-3-yl)-8-trifluoromethyl-6,7,8,9-tetrahydro-pyrimido[1,2-a]-pyrimidin-4-one], the IC50 lay within 10 to 100 nM.

For the compound `C[C@@H]1COCCN1c1cc(=O)n2c(n1)N(Cc1nnc[nH]1)[C@H](C(F)(F)F)CC2` [Example 264, (S)-2-((R)-3-Methyl-morpholin-4-yl)-9-(4H-[1,2,4]triazol-3-yl-methyl)-8-trifluoromethyl-6,7,8,9-tetrahydro-pyrimido[1,2-a]-pyrimidin-4-one], the IC50 was less than 10 nM.

The term IC50 denotes the concentration at which inhibition is half-maximal.
